Source: US8822535B2 (priority 2005, dated 2014)
“And” between values parts separate entries of the source, which are not always exact repeats. Equal values may be shown once. Read-outs that look alike come from different tables or passages of the source.

How the values were obtained:
[1] = tested on: mice; details: mouse, in vivo; for effect on body (subcutaneous) temperature / effective dose (to lower subcutaneous temperature): sc
[2] = tested on: mice; test: Gas matrix: metabolic flexibility in altered gas environments, mice; assay type: in vivo, mouse; details: for depression in metabolic rate, Mouse: ambient 7 to 10° C., 6-hour treatment
Procedure: (§1) Metabolic flexibility was evaluated in mice rats and dogs using altered gas environments. Three parameters were used to define this reduction in metabolism including changes in carbon dioxide production, oxygen consumption measured by respirometry, and core temperature as measured using telemetry. In experiments with mice and rats the animals were placed into sealed chambers with one gas import and one gas export. For dogs a mask was placed over the snout of the animal with two hoses (import and export) attached to the mask. The flow rate of gas for each of the animals mice—500 cc per minute, rats—2 liters per minute, and dogs 40 liters per minute. Each atmosphere was constructed from compressed gas by dilution into room air unless otherwise noted. For rat and mouse experiments the ambient temperature was 7 to 10° C. during exposure to the test gases. For dogs ambient temperature was room temperature (22° C.).
(§2) Evidence of depression in metabolic rate of greater than 5-fold as judged by carbon dioxide production or oxygen consumption during a 6-hour treatment is described by “Yes”; […]; “N/D” denotes experiments not done. The temperature drop in the dog experiment (Carbon dioxide+low oxygen+Helium) was approximately 1.5° C. over the course of 30 minutes of exposure. This drop in temperature was considered significant because the dog was 12 kg and no such temperature drop was seen during extensive baseline recording of the animal in room air.

[3] = tested on: rats; test: Gas matrix: metabolic flexibility in altered gas environments, rats; assay type: in vivo, rat; details: ambient 7 to 10° C., 6-hour treatment
Procedure: as §1, §2

[4] = tested on: Drosophila melanogaster; test: Anoxia tolerance of Drosophila melanogaster after CO2 / H2S treatment; assay type: in vivo
[5] = tested on: Drosophila melanogaster; test: as above; assay type: in vivo; details: adult flies
Procedure: Adult flies were introduced into 35 mL tubes made of glass with a gas-tight rubber stopper (Balsh tubes). This was usually accomplished by anesthetizing flies with CO2, moving groups of flies to vials with food to recover for at least 2 hours, and then transferring them into the Balsh tube. To exchange the gaseous environment in the Balsh tube, two 18 gauge needles were inserted into the rubber stopper, and gas is blown into one of the needles at 100 mL/min. To prevent dessication, gasses were humidified by bubbling through 10 mL of water before passing it through the Balsch tube. The water in the bubbler is equilibrated with the gas for at least 20 minutes before starting the experiment.
For “stopped-flow” experiments, gas exchange proceeded for 60 minutes before sealing the tube. For “low-flow” experiments, gas flow continued throughout the experiment. CO2 was from the house source (100%), and anoxic environments were established by flushing out room air with 100% nitrogen (N2). Care was taken to prevent introduction of room air into the system while switching the atmosphere from CO2 to N2.
After anoxic treatment, oxygen was reintroduced into the Balsh tube by flushing with house air for 20 minutes. The rubber stopper was then removed and a food vial is inverted over the top of the Balsh tubes with Parafilm. […] Viability was scored at least 18 hours after the end of anoxic treatment. After two weeks, if the food vials contained larvae and/or pupae the flies were considered to be fertile.

[6] = tested on: dogs; test: Gas matrix: metabolic flexibility in altered gas environments, dogs; assay type: in vivo, dog; details: 9%
Procedure: as §1, §2

[7] = tested on: human foreskin keratinocytes; assay type: cell-based
[8] = tested on: nematodes (C. elegans); test: Nematode lethal hypothermia screening assay; assay type: in vivo; details: carbon monoxide atmosphere at room temperature prior to 4 degrees C. for 16 hrs
Source text: A screening assay was established using nematodes (C. elegans). […] Worms were exposed for X minutes at room temperature to an atmosphere containing Y % carbon monoxide, prior to exposing them to 4 degrees C. for 16 hrs. […] Since carbon monoxide is a known stasis inducer in nematodes and neonatal human foreskin keratinocytes, the nematode assay is capable of identifying stasis inducing compounds as such by their ability to increase the survivability of worms exposed to lethal hypothermia when the worms are pre-equilibrated in the stasis inducer or other active compound.

[9] = cited from earlier work
[10] = tested on: C. elegans embryos
[11] = previously reported in the literature; cited from earlier work
[12] = tested on: mice; assay type: in vivo, mouse
[13] = tested on: mice; set-up: species or system mouse (C57BL/6); details: mouse, in vivo; for survival in lethal hypoxia: sc
[14] = 100 ppb H2Se, less than 10 minutes (FIG. 26)

Compound: OCCS [2-mercapto-ethanol]
- toxicity [1]: toxic at the effective temperature reducing dose
- effect on body (subcutaneous) temperature [1]: reduced body temperature

Compound: SCCOCCS [2-mercaptoethyl ether]
- toxicity [1]: toxic at the effective temperature reducing dose
- effect on body (subcutaneous) temperature [1]: reduced body temperature

Compound: O=C=O [CO2, carbon dioxide]
- depression in metabolic rate, Mouse ([2]; 15%): Yes 15% (Evidence of depression in metabolic rate of greater than 5-fold as judged by carbon dioxide production or oxygen consumption during a 6-hour treatment is described by “Yes”)
- control of metabolic flexibility ([2]; mice, 15% CO2): affords control of metabolic flexibility
- tidal volume and respiration rate ([2]; mice, 15% CO2): tidal volume increases but respiration rate remains unchanged
- depression in metabolic rate, Rat ([3]; 15%): Yes 15% (Evidence of depression in metabolic rate of greater than 5-fold as judged by carbon dioxide production or oxygen consumption during a 6-hour treatment is described by “Yes”)
- survival ([4]; adult flies, CO2 then N2 with bubbler water not equilibrated with N2, 13 h anoxic exposure): no flies survived
- movement upon reoxygenation ([4]; larvae, pretreated, 24.5 h anoxia): can resume movement
- pupae formed ([4]; pool of 0-19 h old embryos, CO2 10 min pretreatment, anoxia 24 h): 20 pupae
- survival ([5]; 100% CO2 pretreatment 30 minutes, 19 h anoxic exposure, stopped-flow): 54%
- survival ([5]; 100% CO2 pretreatment 90 minutes, 19 h anoxic exposure, stopped-flow): 28%
- survival ([5]; 10 min CO2 pretreatment, 17, 22, and 24 h of anoxia, low-flow): no survival was observed
- survival ([5]; CO2 10 minutes before 20 h anoxic exposure, low-flow (no H2S)): 6%
- survival ([5]; CO2 pretreatment and CO2 for 20 minutes immediately following anoxic exposure): no flies survived
- depression in metabolic rate, Dog ([6]; mask, room temperature (22° C.)): No 9% (“No” (reduction or less than a 5-fold reduction in these values is described as such)
- core body temperature (CBT) ([6]; dog, 12% and 15% carbon dioxide in room air (FIG. 40)): A similar drop

Compound: [C-]#[O+] [CO, carbon monoxide]
- # cells recovered [7]: 167
- Total colonies [7]: 542 colonies (many of which were very and 780 colonies (many of which were very
- dead (tb+), SUM [7]: 61
- fraction alive [7]: 0.91 and 0.50 and 0.77 and 0.83 and 0.54 and 0.80
- fraction alive, SUM [7]: 0.63
- growth of keratinocyte populations [7]: significant growth
- live (tb−), SUM [7]: 106
- survival of skin cells relative to room air [7]: 100 fold
- survival after exposure to cold [8]: survived with high viability
- symptoms ([9]; 50 ppm): no symptoms
- symptoms ([9]; 200 ppm, within two-three hours): slight headache
- symptoms ([9]; 400 ppm, within one to two hours): frontal headache
- symptoms ([9]; 800 ppm, within 45 minutes): dizziness, nausea, and/or convulsions
- lethality ([9]; around 1000 ppm, exposure for more than around 1-2 minutes): can expire
- lethality and suspended animation ([10]; 100% carbon monoxide, 24 hr, room temperature): not lethal and induced reversible suspended animation
- survival ([10]; 500 ppm oxygen balanced with carbon monoxide, 24 hr): entered into suspended animation and survived
- survival to adulthood ([10]; hif-1(ia04) embryos, 0.25 kPa O2/CO, 24 hrs): 83.9% ± 13.8
- survival to adulthood ([10]; hif-1(ia04) embryos, 0.25 kPa O2/CO, 24 hrs, listed as carbon monoxide): 84.0%
- survival to adulthood ([10]; wild-type (N2) embryos, 0.25 kPa O2/CO, 24 hrs): 78.7% ± 21.9
- survival to adulthood ([10]; wild-type (N2) embryos, 0.25 kPa O2/CO, 24 hrs, listed as carbon monoxide): 78.7%
- viability to adulthood ([10]; wild-type embryos, 0.05 kPa O2 balanced with carbon monoxide, 24 hrs): 96.2%
- survival to adulthood ([10]; wild-type embryos, 101 kPa CO (100% CO), 24 hrs): 81.5%
- survival ([5]; treated only with CO for 10 min before the anoxic exposure (18.5 h)): 11%

Compound: [SeH2] [H2Se, hydrogen selenide]
- concentration lethal to animals [11]: greater than 1 ppm
- depression in metabolic rate, Mouse ([2]; 0.0001% in room air): Yes 0.0001% (Evidence of depression in metabolic rate of greater than 5-fold as judged by carbon dioxide production or oxygen consumption during a 6-hour treatment is described by “Yes”)
- core body temperature (CBT) ([2]; mouse, 1.2 ppm of H2Se, 2 hours and 10 minutes, 5° C. ambient (FIG. 34)): significant drop in CBT
- depression in metabolic rate, Rat ([3]; 0.003% in room air): Yes 0.003% (Evidence of depression in metabolic rate of greater than 5-fold as judged by carbon dioxide production or oxygen consumption during a 6-hour treatment is described by “Yes”)
- core body temperature and respiration ([12]; 10 ppb of H2Se (FIG. 27)): reduction in core body temperature and respiration
- core body temperature [12, 14]: drop in core body temperature
- reduction in metabolic activity as evidenced by respiration [12, 14]: 3 fold
- reversibility of effects ([12]; tests used to evaluate reversibility with H2S): fully reversible

Compound: CC(=O)N[C@@H](CS)C(=O)O [N-acetyl-L-cysteine]
- effect on body (subcutaneous) temperature [1]: did not reduce subcutaneous temperature

Compound: CC(O)=S [Thioacetic acid]
- effect on body (subcutaneous) temperature [1]: reduced body temperature
- protection from lethal hypoxia [13]: did not enhance survival in hypoxia

Compound: NCCS [cysteamine]
- effective dose (to lower subcutaneous temperature) [1]: 7.58 mmol/kg
- survival in lethal hypoxia [13]: 45 min

Compound: CSC [dimethyl sulfide]
- effect on body (subcutaneous) temperature [1]: did not reduce subcutaneous temperature

Compound: NCCCNCCSP(=O)(O)O [phosphorothioic acid S-(2-((3-aminopropyl)amino)ethyl) ester]
- effect on body (subcutaneous) temperature [1]: reduced body temperature
- protection from lethal hypoxia [13]: did not enhance survival in hypoxia

Compound: N=C(N)[SeH] [selenourea]
- effect on body (subcutaneous) temperature [1]: reduced body temperature
- protection from lethal hypoxia [13]: did not enhance survival in hypoxia

Compound: CS(=O)[O-].[Na+] [sodium methane sulfinate]
- effect on body (subcutaneous) temperature [1]: did not reduce subcutaneous temperature

Compound: [SeH2] [sodium selenide]
- effect on body (subcutaneous) temperature [1]: did not reduce subcutaneous temperature

Compound: N#C[S-].[Na+] [sodium thiocyanate]
- effective dose (to lower subcutaneous temperature) [1]: 4.67 mmol/kg

Compound: C[S-].[Na+] [sodium thiomethoxide]
- effective dose (to lower subcutaneous temperature) [1]: 4.61 mmol/kg
- survival in lethal hypoxia [13]: 60 min

Compound: OC1CCSCC1 [tetrahydrothiopyran-4-ol]
- survival in lethal hypoxia [13]: 15 min

Compound: O=C(O)CS [thioglycolic acid]
- toxicity [1]: toxic at the effective temperature reducing dose
- effect on body (subcutaneous) temperature [1]: reduced body temperature
